Consider 13 compounds from patent US10017506B2, “ATX modulating agents” (BIOGEN MA INC., priority 2012, dated 2018).

Structures are written as SMILES.

One test deals with T1, Human ATX protein (Homo sapiens, UniProt Q13822).
T1 construct: made in house
In words: ATX biochemical FRET assay with FS-3 substrate. The note with it: FRET substrate FS-3 2 μM, ATX 1.0 μg/mL, 30 minutes pre-incubation, 2 hours at room temperature; read-out: IC50. The method in brief:
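Enzyme at 1.0 μg/mL final, pre-incubated with compound (10-point, 3-fold series) for 30 min at RT in Tris pH 7.4 buffer with NaCl, KCl, CaCl2, MgCl2 and 1 mg/mL fatty-acid-free BSA. After FS-3 addition, 2 h at RT protected from light; fluorescence at 485/538 nm.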
A word on the IC50: it is the concentration that gives 50% inhibition. As for `CC(N[C@H]1C[C@@H](C(=O)O)C1(C)C)c1ccc2ccc(O[C@H]3CC[C@@H](C)CC3)c(C(F)(F)F)c2c1` (stereo partly drawn) [Example 113, (1R,3S)-2,2-dimethyl-3-((1-(7-((cis-4-methylcyclohexyl)oxy)-8-(trifluoromethyl)naphthalen-2-yl)ethyl)amino)cyclobutanecarboxylic acid], the half-maximal inhibitory concentration (IC50) is not above 100 nM. The same measure, in the same setting: for `CC[C@H]1CC[C@@H](Oc2ccc3ccc(C(C)N[C@H]4C[C@@H](C(=O)O)C4(C)C)cc3c2Cl)CC1` (stereo partly drawn) [Example 67, (1R,3S)-3-((1-(8-chloro-7-((cis-4-ethylcyclohexyl)oxy)naphthalen-2-yl)ethyl)amino)-2,2-dimethylcyclobutanecarboxylic acid] the value was not above 250 nM; for `CC[C@H]1CC[C@@H](Oc2ccc3ccc(C(C)N[C@@H]4C[C@H](C(=O)O)C4(C)C)cc3c2C(F)(F)F)CC1` (stereo partly drawn) [Example 115, (1S,3R)-3-((1-(7-((cis-4-ethylcyclohexyl)oxy)-8-(trifluoromethyl)naphthalen-2-yl)ethyl)amino)-2,2-dimethylcyclobutanecarboxylic acid], not above 100 nM; for `CC1(C)C(NCc2ccc3ccc(O[C@H]4CC[C@@H](C(F)(F)F)CC4)c(C(F)(F)F)c3c2)CC1C(=O)O` (stereo partly drawn) [Example 8, 2,2-dimethyl-3-(((8-(trifluoromethyl)-7-((cis-4-(trifluoromethyl)cyclohexyl)oxy)-naphthalen-2-yl)methyl)amino)cyclobutanecarboxylic acid], not above 250 nM. Regarding `CC1(C)[C@@H](NCc2ccc3ccc(O[C@H]4CC[C@@H](C)CC4)c(C#N)c3c2)C[C@H]1C(=O)O` (relative stereo) [Example 99, Cis-3-(((8-cyano-7-((cis-4-methylcyclohexyl)oxy)naphthalen-2-yl)methyl)amino)-2,2-dimethylcyclobutanecarboxylic acid], the IC50 is not above 250 nM. On the same count and under the same terms, the same measure for `CCC(N[C@H]1CC[C@@H](C(=O)O)CC1)c1ccc2ccc(O[C@H]3CC[C@@H](C(F)(F)F)CC3)c(C(F)(F)F)c2c1` (stereo partly drawn) [Example 147, cis-4-((1-(8-(trifluoromethyl)-7-((cis-4-(trifluoromethyl)cyclohexyl)oxy)naphthalen-2-yl)propyl)amino)cyclohexanecarboxylic acid]: not above 100 nM.

The same test, now with this note: IC50, FRET substrate FS-3 2 μM, ATX 1.0 μg/mL, 30 minutes pre-incubation, 2 hours at room temperature.
Take `[2H]C([2H])([2H])[C@@H](c1ccc2ccc(O[C@H]3CC[C@@H](C(F)(F)F)CC3)c(C(F)(F)F)c2c1)N1C2CCC1CC(C(=O)O)C2` (stereo partly drawn) [Example 46, 8-((S)-1-(8-(trifluoromethyl)-7-((cis-4-(trifluoromethyl)cyclohexyl)oxy)naphthalen-2-yl)-2,2,2-trideuteroethyl)-8-azabicyclo[3.2.1]octane-3-carboxylic acid]: the IC50 was not above 100 nM. Still for that read-out and setting: for `CC[C@H]1CC[C@@H](Oc2ccc3ccc(CN4C5CCC4CC(C(=O)O)C5)cc3c2C#N)CC1` (stereo partly drawn) [Example 70, 8-((8-cyano-7-((cis-4-ethylcyclohexyl)oxy)naphthalen-2-yl)methyl)-8-azabicyclo[3.2.1]octane-3-carboxylic acid] the value was not above 100 nM.

With `CC(C)[C@H]1CC[C@@H](Oc2ccc3ccc(CN4C5CCC4CC(C(=O)O)C5)cc3c2C(F)(F)F)CC1` (stereo partly drawn) [Example 107, 8-((7-((cis-4-isopropylcyclohexyl)oxy)-8-(trifluoromethyl)naphthalen-2-yl)methyl)-8-azabicyclo[3.2.1]octane-3-carboxylic acid], the IC50 is not above 100 nM. In turn, `CC(c1ccc2ccc(O[C@H]3CC[C@@H](C)CC3)c(C(F)F)c2c1)N1C2CCCC1CC(C(=O)O)C2` (stereo partly drawn) [Example 88, 9-(1-(8-(difluoromethyl)-7-((cis-4-methylcyclohexyl)oxy)naphthalen-2-yl)ethyl)-9-azabicyclo[3.3.1]nonane-3-carboxylic acid] registered an IC50 not above 100 nM. In turn, `CC(c1ccc2ccc(O[C@H]3CC[C@@H](C)CC3)c(Cl)c2c1)N1C2CCC1CC(C(=O)O)C2` (stereo partly drawn) [Example 90, 8-(1-(8-chloro-7-((cis-4-methylcyclohexyl)oxy)naphthalen-2-yl)ethyl)-8-azabicyclo[3.2.1]octane-3-carboxylic acid] gave a concentration for half-maximal inhibition (IC50) not above 250 nM.

Compound `CC(c1ccc2ccc(O[C@H]3CC[C@@H](C(F)(F)F)CC3)c(Cl)c2c1)N1C2CCCC1CC(C(=O)O)C2` (stereo partly drawn) [Example 30, 9-(1-(8-chloro-7-((cis-4-(trifluoromethyl)cyclohexyl)oxy)naphthalen-2-yl)ethyl)-9-azabicyclo[3.3.1]nonane-3-carboxylic acid] came in with an IC50 not above 250 nM. Same read-out and setting: for `C[C@H]1CC[C@@H](Oc2ccc3ccc(CN4C5CCCC4CC(C(=O)O)C5)cc3c2C(F)F)CC1` (stereo partly drawn) [Example 86, 9-((8-(difluoromethyl)-7-((cis-4-methylcyclohexyl)oxy)naphthalen-2-yl)methyl)-9-azabicyclo[3.3.1]nonane-3-carboxylic acid] the value was not above 100 nM.
